Data on 34 molecules can be found in US20080287445A1, “Prokineticin 2 receptor antagonists” (priority 2005, published 2008).

The target in the assay is T1, GPR73 (prokineticin 1 receptor) (Homo sapiens, UniProt Q8TCW9).
T1 construct: expressed in transfected cells; host or cells: HEK 293
Briefly: PK1 functional assay: Ca2+ mobilization screening for PK1 antagonists on the FLIPR. In kind it is cell-based. The conditions noted are these: HEK 293 GPR73 cells, multiple values = multiple testing; for inhibition at 10 µM: HEK293, 10 μM compound, read-out: Ca^2+ Mobilization % Inh @ 10 μM; for pIC50: PK1 ligand preparation at its EC50, read-out: Ca^2+ Mobilization IC50; for Ca^2+ Mobilization % Inh @ 10 μM: 10 μM compound. As to the method: At a time of 24 h prior to running the assay, in cell culture media (DMEM containing high Glucose and L-glutamine, 10% FBS, 1% Pen/Streptomycin, 1% Sodium Pyruvate, 20 mM HEPES, Zeocin 200 mg/L), 100 μL of 1.3*10^6/ml HEK 293 GPR73 (prokineticin 1 receptor) expressing cells were plated in a 96 well poly-d-lysine coated plate (Costar), and incubated at 37 C and 5% CO2. On the day in which the assay was run, the media was removed and 200 μL of 5× Calcium Plus Dye (Molecular Devices) which was previously resuspended with 200 mL of assay buffer [HBSS w/Ca^2+ and Mg^2+ w/o phenol red, 20 mM HEPES, 0.1% BSA, 10 mL probenecid (710 mg probenecid in 5 mL of 1N NaOH, to which was then added 5 mL HBSS containing 20 mM HEPES)] was added to each well of the 96-well plate. The plate was incubated at 37 C and 5% CO2 for 30 min in dark. The plate was removed and allowed to reach RT for 15 min in the dark. The assay was then run on the FLIPR. In Brief: base line read for 1 min, compound added (25 μL) and incubated for 4 min, 15 seconds, PK1 ligand preparation added (25 μL) for a final concentration of a previously determined EC50 and fluorescence was counted for 1 min, 45 seconds. Baseline is described as the amount of relative fluorescence read when buffer alone is added to cells. Baseline was subtracted from all wells. Percent of control was calculated as follows:
(Baseline subtracted well value is divided by baseline subtracted max value)*100. Percent inhibition is 100 minus the percent of control value.
The IC50 is defined as the amount of a given compound required to inhibit 50% of the maximum signal that is generated by the concentration of PK1 preparation used in our assay. IC50 values were calculated using GraphPad Prism.

pIC50: −log10 of the molar value. “And” between values parts separate entries of the source, which are not always exact repeats. Equal values may be shown once. Where only a bound is given, the exact number is not on record here.

T1 sequence (Q8TCW9 whole entry, species assumed): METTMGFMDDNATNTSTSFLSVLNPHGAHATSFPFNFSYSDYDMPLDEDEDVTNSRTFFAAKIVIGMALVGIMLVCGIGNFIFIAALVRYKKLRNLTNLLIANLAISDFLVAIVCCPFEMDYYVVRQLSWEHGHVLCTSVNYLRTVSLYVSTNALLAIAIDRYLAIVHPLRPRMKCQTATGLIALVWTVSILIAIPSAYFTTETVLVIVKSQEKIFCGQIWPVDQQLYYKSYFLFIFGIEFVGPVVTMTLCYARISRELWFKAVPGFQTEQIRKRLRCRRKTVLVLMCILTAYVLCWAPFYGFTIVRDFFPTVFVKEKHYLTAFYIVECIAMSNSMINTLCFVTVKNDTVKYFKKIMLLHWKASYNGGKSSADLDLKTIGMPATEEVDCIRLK

Regarding `COc1ccc(Cn2c(NCc3cc(C(F)(F)F)ccn3)nc(=O)n(Cc3ccc(OC)cc3)c2=O)cc1` [Cpd 237], the inhibition at 10 µM came out at 69% and the negative logarithm of the IC50 (pIC50) is 5.77.
With `COc1ccc(Cn2c(NCc3cnc(C)cc3C)nc(=O)n(Cc3ccc4c(c3)OCO4)c2=O)cc1` [Cpd 207], the “Ca^2+ Mobilization % Inh @ 10 μM” value is given as 93%; the inhibition at 10 µM turned out to be 92%; the pIC50 was 6.34 and 6.33.
As to `Cc1cc(COCc2ccccc2)c(CNc2nc(=O)n(Cc3ccc4c(c3)CCO4)c(=O)n2Cc2ccc(OC(F)F)cc2)c(N)n1` [Cpd 270, 6-[(2-Amino-4-benzyloxymethyl-6-methyl-pyridin-3-ylmethyl)-amino]-1-(4-difluoromethoxy-benzyl)-3-(2,3-dihydro-benzofuran-5-ylmethyl)-1H-[1,3,5]triazine-2,4-dione], the inhibition at 10 µM was 12% and the pIC50 is less than 5.00.
In the case of `Cc1cc(C)c(CNc2nc(=O)n(Cc3ccc4occc4c3)c(=O)n2Cc2ccc(OC(F)F)cc2)c(N)n1` [Cpd 175], the “Ca^2+ Mobilization % Inh @ 10 μM” value worked out at 99%; the inhibition at 10 µM stood at 96%; the pIC50 was 7.24 and 7.03.
As for `Cc1cc(C)c(CNc2nc(=O)n(Cc3ccc(C(N)=O)cc3)c(=O)n2Cc2ccc(OC(F)F)cc2)cn1` [Cpd 194], the inhibition at 10 µM is 49% and the negative logarithm of the IC50 (pIC50) was 5.21.
Taken in the same sequence, the figures for `COc1ccc(Cn2c(NCc3cccnc3NCC3CCCO3)nc(=O)n(Cc3ccc(OC)cc3)c2=O)cc1` (centres unmarked) [Cpd 68] were 95% and 6.66.
Taken in the same sequence, the figures for `COc1ccc(Cn2c(NCc3cnc(C)cc3C)nc(=O)n(Cc3ccccc3OC)c2=O)cc1` [Cpd 144] were 36% and less than 5.00.
Turning to `COc1ccc(Cn2c(OCc3cccnc3)cc(=O)n(Cc3ccc(OC)cc3)c2=O)cc1` [Cpd 121, 1,3-Bis-(4-methoxy-benzyl)-6-(pyridin-3-ylmethoxy)-1H-pyrimidine-2,4-dione], the inhibition at 10 µM was found to be 58% and the pIC50 was 5.20.
As to `COc1ccc(Cn2c(NCc3ccccn3)nc(=O)n(Cc3ccc(OC)cc3)c2=O)cc1` [Cpd 39], the “Ca^2+ Mobilization % Inh @ 10 μM” value was 95%; the inhibition at 10 µM was found to be 92%; the pIC50 is 7.20 and 7.09.
As for `COc1ccc(Cn2c(=O)nc(NCc3cnc(C)cc3C)n(Cc3ccncc3)c2=O)cc1` [Cpd 101], the inhibition at 10 µM amounted to 60% and the negative logarithm of the IC50 (pIC50) is 5.48.
For `COc1ccc(Cn2c(OCc3c(C)cc(C)nc3N)cc(=O)n(Cc3ccc(OC)cc3)c2=O)cc1` [Cpd 202], the inhibition at 10 µM amounted to 70% and the negative logarithm of the IC50 (pIC50) was 6.08.
Taken in the same sequence, the figures for `COc1ccc(Cn2c(=O)nc(NCc3cnc(C)cc3C)n(CC3CCC(OC)CC3)c2=O)cc1` (centres unmarked) [Cpd 150] were 78% and 6.23.
Taken in the same sequence, the figures for `CCNc1ncccc1CNc1nc(=O)n(Cc2ccc(F)cc2)c(=O)n1Cc1ccc(OC)cc1` [Cpd 19] were 83% and 6.05.
Regarding `COc1ccc(Cn2c(NCc3c(N)nc(C)c(C)c3C)nc(=O)n(Cc3ccc(OC)cc3)c2=O)cc1` [Cpd 263], the inhibition at 10 µM was 99% and the pIC50 is 7.03.
Taken in the same sequence, the figures for `Cc1cc(C)c(CNc2nc(=O)n(Cc3ccc4c(c3)CCO4)c(=O)n2Cc2ccc(OC(F)F)cc2)cn1` [Cpd 179] were 61% and 5.34.
Consider `COc1ccc(Cn2c(NCc3cnccc3C)nc(=O)n(Cc3ccc(OC)cc3)c2=O)cc1` [Cpd 201], for which the inhibition at 10 µM was found to be 95% and the negative logarithm of the IC50 (pIC50) was 6.49.
Turning to `COc1ccc(Cn2c(NCc3cc4ccccc4nc3N)nc(=O)n(Cc3ccc(OC)cc3)c2=O)cc1` [Cpd 9], the inhibition at 10 µM is 95% and the pIC50 was 6.53.
Taken in the same sequence, the figures for `COCCCCCn1c(=O)nc(NCc2cnc(C)cc2C)n(Cc2ccc(OC(F)F)cc2)c1=O` [Cpd 198] were 64% and 5.98.
Taken in the same sequence, the figures for `COC(=O)c1ccc(Cn2c(=O)nc(NCc3cnc(C)cc3C)n(Cc3ccc(OC)cc3)c2=O)cc1` [Cpd 114] were 48% and 5.20.
Take `COc1ccc(Cn2c(NCc3cccnc3N)nc(=O)n(Cc3ccccc3OC)c2=O)cc1` [Cpd 143]: the inhibition at 10 µM came out at 31% and the pIC50 is less than 5.00.
The like results for `Cc1cc(C)c(CNc2nc(=O)n(Cc3ccc(OC(F)F)cc3)c(=O)n2Cc2ccc(OC(F)F)cc2)cn1` [Cpd 163] were, in that order, 38% and less than 5.00.
Taken in the same sequence, the figures for `COc1ccc(Cn2c(NCc3cnc(C)cc3C)nc(=O)n(Cc3ccc4sccc4c3)c2=O)cc1` [Cpd 146] were 80% and 5.67.
Take `COc1ccc(Cn2c(NCc3cccnc3N)nc(=O)n(Cc3ccc(OC)c([N+](=O)[O-])c3)c2=O)cc1` [Cpd 124]: the inhibition at 10 µM is 61% and the pIC50 is 6.09.
Consider `COc1ccc(Cn2c(NCc3cccnc3N)nc(=O)n(Cc3ccc(OC(F)(F)F)cc3)c2=O)cc1` [Cpd 45], for which the inhibition at 10 µM came out at 40% and the pIC50 was less than 5.00.
As to `COc1ccc(Cn2c(=O)nc(NCc3cccnc3N)n(Cc3ccccc3OC)c2=O)cc1` [Cpd 92], the inhibition at 10 µM worked out at 58% and the negative-log IC50 (pIC50) is 5.29.
The like results for `COc1ccc(Cn2c(NCc3cnc(C)cc3C)nc(=O)n(Cc3ccc4c(c3)CCO4)c2=O)cc1` [Cpd 123, 3-(2,3-Dihydro-benzofuran-5-ylmethyl)-6-[(4,6-dimethyl-pyridin-3-ylmethyl)-amino]-1-(4-methoxy-benzyl)-1H-[1,3,5]triazine-2,4-dione] were, in that order, 83% and 6.16.
The like results for `COc1ccc(Cn2c(NCc3cnc(C)cc3C)nc(=O)n(Cc3ccc4snnc4c3)c2=O)cc1` [Cpd 217] were, in that order, 81% and 6.00.
Taken in the same sequence, the figures for `COc1ccc(Cn2c(=O)nc(NCc3cnc(C)cc3C)n(Cc3ccc4sccc4c3)c2=O)cc1` [Cpd 142] were 76% and 6.41.
Take `COc1ccc(Cn2c(=O)nc(NCc3cccnc3N)n(Cc3ccc(OC)c(F)c3)c2=O)cc1` [Cpd 203]: the inhibition at 10 µM amounted to 103% and the pIC50 is 7.22.
The like results for `COc1ccc(Cn2c(NCc3cc(C)ccn3)nc(=O)n(Cc3ccc(OC)cc3)c2=O)cc1` [Cpd 62] were, in that order, 52% and 5.69.
As to `COc1ccc(Cn2c(=O)nc(NCc3cnc(C)cc3C)n(Cc3cccc4cc[nH]c34)c2=O)cc1` [Cpd 172], the inhibition at 10 µM turned out to be 88% and the pIC50 was 6.29.
`COc1ccc(Cn2c(NCc3ccc4c(n3)NCCC4)nc(=O)n(Cc3ccc(F)cc3)c2=O)cc1` [Cpd 21, 3-(4-Fluoro-benzyl)-1-(4-methoxy-benzyl)-6-[(5,6,7,8-tetrahydro-[1,8]naphthyridin-2-ylmethyl)-amino]-1H-[1,3,5]triazine-2,4-dione]: the inhibition at 10 µM is 85% and the pIC50 is 6.18.
The like results for `COc1ccc(Cn2c(NCc3cccc(N)n3)cc(=O)n(Cc3ccc(OC)cc3)c2=O)cc1` [Cpd 148, 6-[(6-Amino-pyridin-2-ylmethyl)-amino]-1,3-bis-(4-methoxy-benzyl)-1H-pyrimidine-2,4-dione] were, in that order, 86% and 6.30.
Taken in the same sequence, the figures for `COc1ccc(Cn2c(NCc3ccc(N)nc3)nc(=O)n(Cc3ccc(Cl)cc3)c2=O)cc1` [Cpd 5] were 81% and 5.95.

What is called pIC50 is −log10 of the IC50, conventionally taken in molar units.
